In patent publication US20200230205A1, “COMPOSITIONS AND METHODS FOR TREATING MYELIN DISORDERS” (CASE WESTERN RESERVE UNIVERSITY, priority 2017, published 2020):

Key:
[1] = system: oligodendrocyte progenitor cells (OPCs); assay: OPC maturation and process outgrowth on CSPGs (MBP footprint); format: cell-based, mouse
Experimental: OPCs were prepared from newborn C57BL/6 mice as described previously (Luo, F., et al. The Activators of Cyclin-Dependent Kinase 5 p35 and p39 Are Essential for Oligodendrocyte Maturation, Process Formation, and Myelination. J. Neurosci. 36, 3024-3037 (2016).). Cell culture plates were pre-coated with IgM (10 jpg/ml, Millipore) in 50 mM Tris-HCl and followed primary mouse antibody A2B5. Dissociated cells were incubated in the pre-coated culture dishes for 30 min at 37° C. and then non-adherent cells were gently removed. A2B5+ OPCs were released by 0.05% trypsin in DMEM at a purify of ˜96%. Purified OPC cells were expanded in DMEM/F12 medium supplemented with N2, 20 ng/ml PDGF, 20 ng/mlFGF, 5 ng/mlNT-3, 10 ng/ml CNTF, Glutamine (200 mM).
For MMP-2/04 staining, OPCs were plated onto 24-well coverslips that were precoated with PLL, 1 μg/mL laminin, and 2 μg/mL aggrecan and incubated with vehicle or 2.5 μM ISP for 2 days at 37° C. Cultured OPC or OL cells were fixed in 4% PFA and followed blocking in PBST solution (10% normal goat serum and 0.2% Triton-X100 in PBS). Diluted primary antibodies were incubated with samples overnight at 4° C. and followed by appropriate secondary antibody goat anti-mouse or anti-rabbit IgM or IgG conjugated with Alexa Fluor 488 or 594 (1:500, Invitrogen). […]

[2] = system: aggrecan (CS56); assay: CSPG degradation by OPC conditioned media (CS56 spot quantification and western blot of aggrecan); format: cell-based, mouse
Experimental: CSPG gradients were prepared as described previously (Tom, V. J., et al. Studies on the Development and Behavior of the Dystrophic Growth Cone, the Hallmark of Regeneration Failure, in an In vitro Model of the Glial Scar and after Spinal Cord Injury.). 24-well glass coverslip were coated with poly-L-lysine and nitrocellulose, and a mixture of 700 μg/mL aggrecan (A1960 Sigma) and 10 μg/mL laminin (11243217001 Sigma) spotted on the coated coverslip. After drying, coated coverslips were then incubated with laminin at 37° C. for 3h. Purified OPCs were plated at a density of 10,000/coverslip and cultured in DMEM/F12 medium containing with N2, PDGF (20 ng/ml), FGF (20 ng/ml), NT-3 (5 ng/ml), CNTF (O1 ng/ml), Glutamine (200 mM). Coverslips were stained with CS-56 (C8035, Sigma, 1:500) and O4 antibodies (Hybridoma Core Cleveland Clinic, 1:10). O4-positive cells crossing the aggrecan border were counted for each spot. For CSPG gradient quantification, 1×10^6 OPCs were plated per well on PLL, 1 μg/mL laminin, and 2 μg/mL aggrecan coated 6-well plates. OPCs treated with vehicle, 2.5 μM ISP, or 2.5 μM SISP for 2 days at 37° C. CM was harvested and incubated with freshly made spots. Spots were incubated with CM for 2 days at 37° C. then stained with CS-56 and laminin (L9393, Sigma, 1:1000) antibodies and consistently imaged. Using ImageJ software (NIH), pixel intensities of the CS-56 or laminin spot rims were quantified using the same ROI. For cultured spinal cord explant, the spinal cords of cervical and thoracic of P1 mouse pups were chopped into 1-2 mm tissue pieces and transferred to the coverslip. Explants were cultured in DMEM/F12 medium with 15% FBS (Hyclone), O1 ng/ml PDGF (Sigma) and N2 supplement (Invitrogen). For ISP treatment, 2.5 uM ISP was added to the media at the time of plating. 25 μM GM6001 (2983, Tocris), 100 nM MMP-2 inhibitor (444244, Calbiochem), and/or 2.5 μM ISP or SISP was used.
CM was harvested from 1×10^6 OPCs incubated on PLL, 1 μg/mL laminin, and 2 μg/mL aggrecan coated 6-well plates. OPCs were treated with vehicle, 2.5 μM ISP, or 2.5 μM SISP in conjunction with 10 μg/mL Exo1 (ab120292, Abcam), or 25 μM GM6001 (364205, Calbiochem) for 2 days at 37° C. […] CM of each cell-strained group was incubated with 20 μg/mL aggrecan and/or 10 μg/mL laminin for 2 hours in lmL Eppendorf tubes at 37° C. As a positive control, OPC media was incubated with aggrecan and incubated in the same fashion. Western blots were then performed as described below with incubation against CS-56 and/or laminin antibodies.

[3] = system: organotypic cerebellar slice cultures; assay: LPC-induced demyelination in mouse cerebellar slice cultures; format: cell-based
Excerpt: We carried out the cerebellar slice culture method as described previously (Zhang, H., et al. Central nervous system remyelination in culture—A tool for multiple sclerosis research. Experimental Neurology 230, 138-148 (2011)). Briefly, 300 μm-thick cerebellar slices were cut from P10-12 mouse cerebellum using a Leica vibrating microtome (Leica, VT1000S) and cultured in medium containing 50% basal medium eagle medium, 25% Heat-inactivated horse serum, 25% Hank's solution, 2.5% glucose, 1% glutamine and penicillin-streptomycin. After 4 days in vitro (DIV), 0.5 mg/ml LPC were added for 17-18h to induce demyelination. Slices were then incubated with 2.5 μM ISP for 8 days. For GM6001 experiments, 25 μM GM6001 (Tocris) and/or 2.5 μM ISP or SISP was incubated for 9 days. Remyelination was examined by semi-quantitative Western blot of MBP and immunofluorescence stain of MBP and NeuF200.
Slices were fixed with 4% PFA, delipidated, and washed three times in PBS, blocked in PBS containing 0.1% Triton X-100 and 5% normal goat serum and incubated with anti-MBP (SMI-99P, Covance, 1:300), and anti-NeuF200 (N4142, Sigma, 1:250) antibodies overnight at 4° C. The slices were then washed in PBS and incubated in Alexa Fluor-conjugated secondary antibodies (1:500, invitrogen) for 2h. Slices were mounted in Vectashield mounting medium with DAPI (Vector Laboratories) and analyzed using Leica DFC500 fluorescence microscope.

CCCCCCCC/C=C\CCCCCCCC(=O)NO [OA-Hy, reference compound]
MBP footprint ([1]; 100 nM OA-Hy, OPCs on aggrecan/laminin, vs ISP treatment alone): decreased MBP footprint significantly
CS56 spot degradation ([2]; 25 μM GM6001 or 100 nM OA-Hy with 2.5 μM ISP): additionally rescued CS56 spot degradation
aggrecan GAG digestion (CS56 immunoblot) ([2]; Exo1 10 μg/mL, GM6001 25 μM or OA-Hy 100 nM with 2.5 μM ISP): partially rescued
colocalization of MBP and neurofilament+ axons ([3]; 25 μM GM6001 or 100 nM OA-Hy in conjunction with 2.5 μM ISP, 9 days): decreased

GRKKRRQRRRCDMAEHMERLKANDSLKLSQEYESI [ISP]
process outgrowth and maturation of OPCs grown on CSPGs (MBP+ footprints) ([1]; ISP vs vehicle on CSPGs): largely rescued
CS56 immunoblot of aggrecan incubated with OPC CM ([2]; 2.5 μM ISP, aggrecan 20 μg/mL): significant CS56 degradation
CS56 expression of aggrecan/laminin spots ([2]; CM of OPCs treated with 2.5 μM ISP, vs vehicle, SISP and no cell control): significantly reduced CS56 expression
CS56 band, western blot ([2]; ISP at 2.5 and 5 μM doses vs control): significant ISP-treated CS56 degradation
aggrecan digestion, dependence on ISP dose (western blot) ([2]; varying doses of ISP, aggrecan 20 μg/mL, 2 hours): dose-dependent manner
MBP-neurofilament colocalization ([3]; 2.5 μM ISP for 9 days after LPC, vs control): significantly increased
remyelination (MBP and NF200 colocalization) ([3]; 2.5 μM ISP, 8 div after LPC, vs vehicle): increased remyelination
aggrecan (Cat301) expression vs vehicle ([3]; 4 div): similar
aggrecan (Cat301) presence ([3]; 8 div): decrease in aggrecan presence
CSPG expression vs vehicle ([3]; 14 div): greater CSPG decrease
remyelination (MBP and NF200 colocalization, western blot) ([3]; ISP, 14 div after LPC): abundant remyelinated axons
